Results as given in ChEMBL document CHEMBL1773061, “Chiral sulfoxides as metabolites of 2-thioimidazole-based p38α mitogen-activated protein kinase inhibitors: enantioselective synthesis and biological evaluation” (J Med Chem, 2011).

Assays:
Format in all cases: tissue-based
[1] = target: T1, Mitogen-activated protein kinase 14 (Homo sapiens, UniProt Q16539); assay: Inhibition of p38 alpha MAPK in human whole blood assessed as phosphorylation of ATF-2 by immunosorbent non-radioactive enzyme assay
T1 sequence (Q16539 whole entry): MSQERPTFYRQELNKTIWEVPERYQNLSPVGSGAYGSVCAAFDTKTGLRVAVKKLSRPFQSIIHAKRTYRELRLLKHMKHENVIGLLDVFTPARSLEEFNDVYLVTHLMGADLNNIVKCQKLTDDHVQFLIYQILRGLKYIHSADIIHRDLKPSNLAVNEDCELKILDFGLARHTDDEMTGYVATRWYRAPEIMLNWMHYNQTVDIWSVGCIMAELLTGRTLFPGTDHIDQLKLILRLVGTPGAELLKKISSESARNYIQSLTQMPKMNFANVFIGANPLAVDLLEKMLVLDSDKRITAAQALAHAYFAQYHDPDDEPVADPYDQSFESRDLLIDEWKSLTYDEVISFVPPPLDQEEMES

[2] = target: T1, Mitogen-activated protein kinase 14; assay: Inhibition of p38 alpha MAPK in human whole blood assessed as phosphorylation of ATF-2 by immunosorbent non-radioactive enzyme assay relative to SB203580
[3] = target: T1, Mitogen-activated protein kinase 14; assay: Inhibition of p38 alpha MAPK in human whole blood assessed as suppression of LPS-induced TNF-alpha release by immunosorbent non-radioactive enzyme assay
[4] = target: T1, Mitogen-activated protein kinase 14; assay: Inhibition of p38 alpha MAPK in human whole blood assessed as suppression of LPS-induced TNF-alpha release by immunosorbent non-radioactive enzyme assay relative to SB203580

C[C@H](Nc1cc(-c2[nH]c([S@@+](C)[O-])nc2-c2ccc(F)cc2)ccn1)c1ccccc1
IC50 [1]: 25 nM
Ratio IC50 [2]: 1.12
IC50 [3]: 10000 nM
Ratio IC50 [4]: 0.16

CC(C)Sc1nc(-c2ccc(F)cc2)c(-c2ccnc(NC3CCCCC3)c2)[nH]1
Ratio IC50 [2]: 4.17
Ratio IC50 [4]: 2.86

C[C@@H](Nc1cc(-c2[nH]c([S@@+](C)[O-])nc2-c2ccc(F)cc2)ccn1)c1ccccc1
Ratio IC50 [2]: 0.49

CC(C)Nc1cc(-c2[nH]c([S@@+]([O-])C(C)C)nc2-c2ccc(F)cc2)ccn1
Ratio IC50 [2]: 6.17
Ratio IC50 [4]: 3.13

CC(C)Nc1cc(-c2nc([S@+]([O-])C(C)C)[nH]c2-c2ccc(F)cc2)ccn1
IC50 [1]: 4 nM
IC50 [3]: 450 nM

CSc1nc(-c2ccc(F)cc2)c(-c2ccnc(NC(=O)Cc3ccc(F)cc3)c2)[nH]1
Ratio IC50 [2]: 3.44
Ratio IC50 [4]: 0.66

CC(C)[C@H](C)Nc1cc(-c2[nH]c([S@@+](C)[O-])nc2-c2ccc(F)cc2)ccn1
Ratio IC50 [2]: 3.05
Ratio IC50 [4]: 8.5

CC(C)[S@+]([O-])c1nc(-c2ccc(F)cc2)c(-c2ccnc(NC3CCCCC3)c2)[nH]1
Ratio IC50 [2]: 1.62
Ratio IC50 [4]: 5.62

C[S@+]([O-])c1nc(-c2ccnc(NC3CCOCC3)c2)c(-c2ccc(F)cc2)[nH]1
IC50 [1]: 34 nM
IC50 [3]: 830 nM

CSc1nc(-c2ccnc(NC3CCOCC3)c2)c(-c2ccc(F)cc2)[nH]1
IC50 [3]: 180 nM

CC(C)Nc1cc(-c2[nH]c(SC(C)C)nc2-c2ccc(F)cc2)ccn1
IC50 [1]: 4 nM
Ratio IC50 [2]: 3.75
IC50 [3]: 120 nM
Ratio IC50 [4]: 19.4

CC(C)Nc1cc(-c2[nH]c([S@+](C)[O-])nc2-c2ccc(F)cc2)ccn1
IC50 [1]: 24 nM
Ratio IC50 [2]: 2.54
IC50 [3]: 840 nM
Ratio IC50 [4]: 2.29

CC(C)[C@H](C)Nc1cc(-c2[nH]c([S+](C)[O-])nc2-c2ccc(F)cc2)ccn1 (mixture of isomers)
IC50 [1]: 17 nM
Ratio IC50 [2]: 3.41
IC50 [3]: 150 nM
Ratio IC50 [4]: 10.4

CSc1nc(-c2ccnc(NC(=O)Cc3ccc(F)cc3)c2)c(-c2ccc(F)cc2)[nH]1
IC50 [3]: 2980 nM

CC(C)[C@@H](C)Nc1cc(-c2[nH]c([S@+](C)[O-])nc2-c2ccc(F)cc2)ccn1
Ratio IC50 [2]: 1.44
Ratio IC50 [4]: 2.07

CC(C)Nc1cc(-c2nc([S@@+]([O-])C(C)C)[nH]c2-c2ccc(F)cc2)ccn1
IC50 [1]: 6 nM
IC50 [3]: 610 nM

CC(C)[S@@+]([O-])c1nc(-c2ccc(F)cc2)c(-c2ccnc(NC3CCCCC3)c2)[nH]1
IC50 [1]: 11 nM
Ratio IC50 [2]: 3.09
IC50 [3]: 250 nM
Ratio IC50 [4]: 7.64

CSc1nc(-c2ccc(F)cc2)c(-c2ccnc(N[C@@H](C)C(C)C)c2)[nH]1
IC50 [1]: 26 nM
Ratio IC50 [2]: 1.81
IC50 [3]: 50 nM
Ratio IC50 [4]: 31.2

CC(C)Sc1nc(-c2ccnc(NC3CCCCC3)c2)c(-c2ccc(F)cc2)[nH]1
IC50 [1]: 12 nM
IC50 [3]: 650 nM

C[C@H](Nc1cc(-c2nc([S@+](C)[O-])[nH]c2-c2ccc(F)cc2)ccn1)c1ccccc1
IC50 [1]: 45 nM
IC50 [3]: 5520 nM

C[S@+]([O-])c1nc(-c2ccnc(NC(=O)Cc3ccc(F)cc3)c2)c(-c2ccc(F)cc2)[nH]1
IC50 [1]: 141 nM
IC50 [3]: 7530 nM

C[S+]([O-])c1nc(-c2ccc(F)cc2)c(-c2ccnc(NC(=O)Cc3ccc(F)cc3)c2)[nH]1 (racemic)
IC50 [1]: 69 nM
Ratio IC50 [2]: 1.16
IC50 [3]: 5550 nM
Ratio IC50 [4]: 0.31

CC(C)[S+]([O-])c1nc(-c2ccc(F)cc2)c(-c2ccnc(NC3CCCCC3)c2)[nH]1 (racemic)
IC50 [1]: 18 nM
Ratio IC50 [2]: 2.17
IC50 [3]: 1080 nM
Ratio IC50 [4]: 1.72

CC(C)Nc1cc(-c2[nH]c([S+]([O-])C(C)C)nc2-c2ccc(F)cc2)ccn1 (racemic)
IC50 [1]: 3 nM
Ratio IC50 [2]: 5
IC50 [3]: 250 nM
Ratio IC50 [4]: 4.92

CC(C)Nc1cc(-c2[nH]c([S@@+](C)[O-])nc2-c2ccc(F)cc2)ccn1
Ratio IC50 [2]: 5.08
Ratio IC50 [4]: 3.62

C[S+]([O-])c1nc(-c2ccc(F)cc2)c(-c2ccnc(NC3CCCCC3)c2)[nH]1 (racemic)
IC50 [1]: 34 nM
Ratio IC50 [2]: 1.68
IC50 [3]: 620 nM
Ratio IC50 [4]: 1.98

CC(=O)Nc1cc(-c2c(-c3ccc(F)cc3)nc([S@@+](C)[O-])n2C)ccn1
IC50 [1]: 1030 nM
Ratio IC50 [2]: 0.035

CC(C)[C@@H](C)Nc1cc(-c2[nH]c([S@@+](C)[O-])nc2-c2ccc(F)cc2)ccn1
IC50 [1]: 31 nM
Ratio IC50 [2]: 2.32
IC50 [3]: 900 nM
Ratio IC50 [4]: 1.72

C[S@@+]([O-])c1nc(-c2ccnc(NC3CCOCC3)c2)c(-c2ccc(F)cc2)[nH]1
IC50 [1]: 11 nM
IC50 [3]: 790 nM

C[S+]([O-])c1nc(-c2ccc(F)cc2)c(-c2ccnc(NC3CCOCC3)c2)[nH]1 (racemic)
IC50 [1]: 12 nM
Ratio IC50 [2]: 4.67
IC50 [3]: 340 nM
Ratio IC50 [4]: 3.62

CSc1nc(-c2ccc(F)cc2)c(-c2ccnc(NC(C)=O)c2)n1C
IC50 [1]: 188 nM
Ratio IC50 [2]: 0.28

CC(C)[S@+]([O-])c1nc(-c2ccnc(NC3CCCCC3)c2)c(-c2ccc(F)cc2)[nH]1
IC50 [1]: 21 nM
IC50 [3]: 340 nM

C[C@@H](Nc1cc(-c2nc([S@@+](C)[O-])[nH]c2-c2ccc(F)cc2)ccn1)c1ccccc1
IC50 [1]: 168 nM

CC(C)Nc1cc(-c2nc([S@@+](C)[O-])[nH]c2-c2ccc(F)cc2)ccn1
IC50 [1]: 12 nM
IC50 [3]: 530 nM

C[S@@+]([O-])c1nc(-c2ccc(F)cc2)c(-c2ccnc(NC(=O)Cc3ccc(F)cc3)c2)[nH]1
IC50 [1]: 77 nM
Ratio IC50 [2]: 1
IC50 [3]: 6410 nM
Ratio IC50 [4]: 0.27

CSc1nc(-c2ccc(F)cc2)c(-c2ccnc(N[C@H](C)C(C)C)c2)[nH]1
IC50 [1]: 40 nM
Ratio IC50 [2]: 1.8
IC50 [3]: 180 nM
Ratio IC50 [4]: 8.67

CC(C)[C@H](C)Nc1cc(-c2[nH]c([S@+](C)[O-])nc2-c2ccc(F)cc2)ccn1
IC50 [1]: 27 nM
Ratio IC50 [2]: 2.15
IC50 [3]: 250 nM
Ratio IC50 [4]: 6.8

C[S@+]([O-])c1nc(-c2ccc(F)cc2)c(-c2ccnc(NC(=O)Cc3ccc(F)cc3)c2)[nH]1
Ratio IC50 [2]: 0.55
Ratio IC50 [4]: 0.23

CSc1nc(-c2ccnc(NC3CCCCC3)c2)c(-c2ccc(F)cc2)[nH]1
IC50 [1]: 27 nM
IC50 [3]: 170 nM

CC(=O)Nc1cc(-c2c(-c3ccc(F)cc3)nc([S@+](C)[O-])n2C)ccn1
IC50 [1]: 1260 nM
Ratio IC50 [2]: 0.028

CC(C)[C@@H](C)Nc1cc(-c2nc([S@+](C)[O-])[nH]c2-c2ccc(F)cc2)ccn1
IC50 [1]: 36 nM
IC50 [3]: 750 nM

CC(=O)Nc1cc(-c2[nH]c([S+](C)[O-])nc2-c2ccc(F)cc2)ccn1 (racemic)
IC50 [1]: 403 nM
Ratio IC50 [2]: 0.1

CSc1nc(-c2ccc(F)cc2)c(-c2ccnc(NC(C)=O)c2)[nH]1
IC50 [1]: 37 nM
Ratio IC50 [2]: 2.11

CC(=O)Nc1cc(-c2[nH]c([S@+](C)[O-])nc2-c2ccc(F)cc2)ccn1
IC50 [1]: 197 nM
Ratio IC50 [2]: 0.45

CC(=O)Nc1cc(-c2nc([S@@+](C)[O-])[nH]c2-c2ccc(F)cc2)ccn1
IC50 [1]: 161 nM

CC(C)Nc1cc(-c2[nH]c([S@+]([O-])C(C)C)nc2-c2ccc(F)cc2)ccn1
Ratio IC50 [2]: 9.25
Ratio IC50 [4]: 4.24

C[C@@H](Nc1cc(-c2[nH]c([S+](C)[O-])nc2-c2ccc(F)cc2)ccn1)c1ccccc1 (mixture of isomers)
IC50 [1]: 207 nM
Ratio IC50 [2]: 0.28

CC(C)Nc1cc(-c2[nH]c([S+](C)[O-])nc2-c2ccc(F)cc2)ccn1 (racemic)
IC50 [1]: 2 nM
Ratio IC50 [2]: 7.5
IC50 [3]: 470 nM
Ratio IC50 [4]: 2.62

CC(C)[C@H](C)Nc1cc(-c2nc([S@@+](C)[O-])[nH]c2-c2ccc(F)cc2)ccn1
IC50 [1]: 19 nM
IC50 [3]: 200 nM

C[C@H](Nc1cc(-c2[nH]c([S@+](C)[O-])nc2-c2ccc(F)cc2)ccn1)c1ccccc1
Ratio IC50 [2]: 0.62
Ratio IC50 [4]: 0.28

CSc1nc(-c2ccc(F)cc2)c(-c2ccnc(NC3CCOCC3)c2)[nH]1
Ratio IC50 [2]: 9.8
Ratio IC50 [4]: 10.7

CC(=O)Nc1cc(-c2[nH]c([S@@+](C)[O-])nc2-c2ccc(F)cc2)ccn1
Ratio IC50 [2]: 0.55

C[S@+]([O-])c1nc(-c2ccnc(NC3CCCCC3)c2)c(-c2ccc(F)cc2)[nH]1
IC50 [1]: 50 nM
IC50 [3]: 590 nM

CSc1nc(-c2ccc(F)cc2)c(-c2ccnc(NC(C)C)c2)[nH]1
IC50 [1]: 2 nM
Ratio IC50 [2]: 18
IC50 [3]: 130 nM
Ratio IC50 [4]: 12

C[C@@H](Nc1cc(-c2[nH]c([S@+](C)[O-])nc2-c2ccc(F)cc2)ccn1)c1ccccc1
IC50 [1]: 200 nM
Ratio IC50 [2]: 0.42

CSc1nc(-c2ccc(F)cc2)c(-c2ccnc(NC3CCCCC3)c2)[nH]1
Ratio IC50 [2]: 2.89
Ratio IC50 [4]: 7.24

C[S@+]([O-])c1nc(-c2ccc(F)cc2)c(-c2ccnc(NC3CCOCC3)c2)[nH]1
Ratio IC50 [2]: 1.38
Ratio IC50 [4]: 2.05

C[S@@+]([O-])c1nc(-c2ccc(F)cc2)c(-c2ccnc(NC3CCCCC3)c2)[nH]1
IC50 [1]: 29 nM
Ratio IC50 [2]: 2.55
IC50 [3]: 550 nM
Ratio IC50 [4]: 3.09

C[S@@+]([O-])c1nc(-c2ccc(F)cc2)c(-c2ccnc(NC3CCOCC3)c2)[nH]1
Ratio IC50 [2]: 4.45
Ratio IC50 [4]: 2.15

CC(=O)Nc1cc(-c2c(-c3ccc(F)cc3)nc([S+](C)[O-])n2C)ccn1 (racemic)
IC50 [1]: 1070 nM
Ratio IC50 [2]: 0.042

C[C@H](Nc1cc(-c2[nH]c([S+](C)[O-])nc2-c2ccc(F)cc2)ccn1)c1ccccc1 (mixture of isomers)
IC50 [1]: 95 nM
Ratio IC50 [2]: 0.53
IC50 [3]: 6280 nM
Ratio IC50 [4]: 0.25

C[S@+]([O-])c1nc(-c2ccc(F)cc2)c(-c2ccnc(NC3CCCCC3)c2)[nH]1
Ratio IC50 [2]: 1.48
Ratio IC50 [4]: 2.08

CC(C)[C@@H](C)Nc1cc(-c2[nH]c([S+](C)[O-])nc2-c2ccc(F)cc2)ccn1 (mixture of isomers)
IC50 [1]: 61 nM
Ratio IC50 [2]: 1.18
IC50 [3]: 1340 nM
Ratio IC50 [4]: 0.92
